Source: patent US20220226338A1, “Methods of Treating Cancer Using CHK1 Inhibitors” (Sierra Oncology, Inc., priority 2019, published 2022)
Where “and” joins values, the source holds several entries; their conditions need not be identical. Equal values may be shown once. Read-outs that look alike come from different tables or passages of the source.

Assays:
[1] = Single dose PK, rat; type: in vivo; conditions: Rat oral 10 mg/kg single dose
Source text: (§1) Several studies have been conducted to evaluate the PK properties of SRA737, such as the absorption (in vitro permeability assays and in vivo PK following IV and oral administration), distribution (in vivo tissue distribution and in vitro plasma protein binding) and metabolism (in vitro hepatocyte and CYP inhibition and induction studies) of SRA737.
(§2) The PK of SRA737 have been determined in the mouse, rat, dog and monkey following oral and IV administration (Table 3). […] An acceptable terminal elimination t1/2 was also observed in each species. […] The plasma protein binding of SRA737 at 1 and 10 μM was examined in mouse, minipig, monkey and human plasma using ultracentrifugation and in dog plasma (10 μM) using rapid equilibrium dialysis.

[2] = tested on: genetically defined tumors (HGSOC, CRC, mCRPC, NSCLC, SCCHN, SCCA); experiment: SRA737 monotherapy clinical study (SRA737-01), anti-tumor activity per RECIST v1.1; type: in vivo, human
Procedure: An in-human clinical trial is conducted to confirm efficacy of SRA737 monotherapy methods of treatment and patient selection strategies disclosed herein for prospectively-selected genetically-defined subjects with tumor types known to have a high prevalence of genomic alterations expected to sensitize the tumor to Chk1 inhibition (“Cohort Expansion Phase”). The Cohort Expansion Phase consists of 6 indication-specific expansion cohorts of approximately 20 prospectively-selected genetically-defined subjects each. The cohorts are subjects with previously treated metastatic colorectal cancer [CRC], high grade serous ovarian cancer [HGSOC] without CCNE1 gene amplification, HGSOC with CCNE1 gene amplification (or alternative genetic alteration with similar functional effect), metastatic castration-resistant prostate cancer [mCRPC], advanced non-small cell lung cancer [NSCLC], and squamous cell carcinoma of the head and neck [HNSCC], or squamous cell carcinoma of the anus [SCCA]. Subjects are initially administered SRA737 following the dosing regimen established in Example 4. The dosing regimen in some cases changes during the course of the trial.
All subjects who have measurable disease, receive at least one cycle of SRA737 and have a baseline plus at least 1 post-baseline assessment of disease are evaluable for response. Subjects who develop clear evidence of PD without a formal disease assessment and those without a formal disease assessment before study withdrawal are considered non-responders. Complete responses and PRs are required to be confirmed by a subsequent assessment at least 4 weeks later. Stable Disease (SD) determination requires that the relevant criteria be met at least once, a minimum of 6 weeks after the initial dose of SRA737 is given.
Response criteria are defined below: • a. Complete Response (CR): Disappearance of all target lesions. Any pathological lymph nodes (whether target or non-target), in general, have reduction in short axis to <10 mm. • b. Partial Response (PR): At least a 30% decrease in the sum of diameters of target lesions, taking as reference the baseline sum diameters. • c. Progressive Disease (PD): At least a 20% increase in the sum of diameters of target lesions, taking as reference the smallest sum on study (this includes the baseline sum if that is the smallest on study). […] (Note: the appearance of one or more new lesions is also considered progression). • d. Stable Disease (SD): Neither sufficient shrinkage to qualify for PR nor sufficient increase to qualify for PD, taking as reference the smallest sum diameters while on study.
The Cohort Expansion phase was contemporaneously initiated when circulating plasma concentrations of SRA737 exceeded the minimum effective concentration of SRA737 modelled from murine efficacy studies. Thereafter, experience gained in the ongoing Dose Escalation phase informed dose selection for expansion cohorts. The Cohort Expansion phase enrolled subjects with genetically defined tumors that harbored genomic alterations hypothesized to confer sensitivity to Chk1 inhibition, which were prospectively selected by next-generation sequencing (FoundationOne). Subjects with the following tumors were eligible for enrollment: ia) high grade serous ovarian cancer (HGSOC), ib) HGSOC putatively enriched for CCNE1 gene network amplification, ii) colorectal cancer (CRC), iii) metastatic castration-resistant prostate cancer (mCRPC), iv) non-small cell lung cancer (NSCLC), and v) squamous cell carcinomas (head and neck (SCCHN); anus (SCCA)).
Preliminary anti-tumor activity was assessed by target tumor response and overall response in accordance with RECIST v1.1.

[3] = Single dose PK, mouse; type: in vivo; conditions: Mouse oral 10 mg/kg single dose
Source text: as §1, §2

[4] = tested on: plasma protein; experiment: Plasma protein binding, ultracentrifugation, mouse plasma; type: in vitro ADME; conditions: for Percentage Bound / Percentage Free: Mouse plasma
Procedure: as §2

[5] = tested on: cryopreserved hepatocytes; experiment: Stability and metabolites in cryopreserved human hepatocytes; type: in vitro ADME
Procedure: (§3) The formation of SRA737-related metabolites was determined in cryopreserved hepatocytes from human, mouse, rat, dog, minipig and monkey samples after incubation with SRA737 at a nominal concentration of 10 μM for up to 4 hours. […] In the human hepatocyte preparation, approximately 67% of the parent remained after 4 hours of incubation compared to 75% and 7% in the rat and minipig preparations, respectively. Eight human SRA737 metabolites were observed. All SRA737 metabolites formed by human hepatocytes were also formed by monkey hepatocytes. Six metabolites were present at equal or greater abundance in the monkey.

[6] = Three-cycle combination toxicity study with gemcitabine and cisplatin; type: in vivo, mouse; conditions: mice; SRA737 with IV gemcitabine and cisplatin, intermittent schedule over 18 days; high dose triplet group
Source text: Clinical combination of SRA737 and gemcitabine in some cases therefore elicited exacerbated hematological and GI toxicities.

[7] = mouse, in vivo
Procedure: (§4) Reference source not found.6.
(§5) These findings were reversible on cessation of drug administration.
(§6) The MTD was 75 mg/kg/day (225 mg/m^2/day) in the mouse and the HNSTD was […] (350 mg/m^2/day) in the minipig.

[8] = GLP 28-day repeat oral dose toxicity and toxicokinetics, minipig; type: in vivo
Procedure: as §4, §5, §6

[9] = tested on: cryopreserved hepatocytes; experiment: Stability in cryopreserved minipig hepatocytes; type: in vitro ADME; conditions: 10 μM, after 4 hours of incubation
Procedure: as §3

[10] = FA/BRCA gene network alterations

N#Cc1cnc(Nc2cc(NCC3CNCCO3)c(C(F)(F)F)cn2)cn1 (stereo not shown) [SRA737, 5-[[4-[[morpholin-2-yl]methylamino]-5-(trifluoromethyl)-2-pyridyl]amino]pyrazine-2-carbonitrile]
Foral [1]: 42%
confirmed RECIST partial or complete response [2]: no subject had a confirmed RECIST partial or complete response
responses of subjects with unambiguously positive CCNE1 amplification ([2]; 4/24 HGSOC subjects): 3 SD and 1 Progressive Disease (PD)
subjects with best overall response of SD ([2]; 107 subjects treated): 34 (32%) n (%)
DCR ([2]; CCNE gene network alterations): 67%
DCR [2, 10]: 71%
DOS [2, 10]: 3.8 cycles
Disease Control Rate (DCR) ([2]; HGSOC cohort): 54%
maximal target tumor decreases ([2]; HGSOC subjects): 27% and 29%
anti-tumor activity by tumor type ([2]; HGSOC, CRC, mCRPC and NSCLC tumors): Anti-tumor activity was observed
DCR ([2]; PI3K gene network alterations (PIK3CA, AKT, PTEN)): 77%
PDs ([2]; RAS network mutations): 15/20
duration on study (DOS) ([2]; RAS network mutations): 2 cycles
overall average tumor % change ([2]; RAS network mutations): +20%
DCR ([2]; activating mutations in the RAS network): 25%
subjects with durable stable disease (SD) lasting ≥4 months ([2]; data cut off 3 May 2019): 22 (21%) n (%)
Foral [3]: 105%
Percentage Bound ([4]; 1 μM): 94.5%
Percentage Free ([4]; 1 μM): 5.5%
Percentage Bound ([4]; 10 μM): 93.4%
Percentage Free ([4]; 10 μM): 6.6%
plasma protein binding ([4]; mouse): ~94%
number of human SRA737 metabolites observed [5]: Eight
parent remaining ([5]; 10 μM, after 4 hours of incubation): approximately 67%
additional finding in triple combination study [6]: reversible intestinal epithelial degeneration
changes in reproductive organs [7]: changes in reproductive organs, particularly the testes, were also observed
dose-dependent toxicological findings [7]: bone marrow toxicity
changes in reproductive organs ([8]; minipig): changes in reproductive organs, particularly the testes, were also observed
toxicological findings in the GI tract ([8]; minipig): Toxicological findings in the GI tract were also observed
dose-dependent toxicological findings ([8]; minipig pivotal study, reversible on cessation of drug administration): bone marrow toxicity
parent remaining [9]: 7%
